Results from PMC7707092, “Discovery and characterization of ORM‐11372, a novel inhibitor of the sodium‐calcium exchanger with positive inotropic activity” (British Journal of Pharmacology, 2020).

Molecular target: T1, L‐type Ca^2+ channel current (I CaL) (Rattus norvegicus, UniProt P22002)
T1 construct: the inward calcium current (ICaL) in isolated rat cardiomyocytes; endogenous in cells; host or cells: freshly isolated left ventricular cardiomyocytes of male Wistar rats
Assay: L‐type calcium current (I CaL), patch‐clamp in rat ventricular myocytes
Assay type: cell-based
Settings: for effect on calcium current (ICaL) at various test potentials: rat cardiomyocytes; for inhibition at 10 µM: rat ventricular CMs
Excerpt: Manual patch‐clamp recordings of membrane currents (I NCX, L‐type Ca^2+ channel current [I CaL], human cardiac sodium 1.5 current [I Na], and I hERG) were undertaken using either an Axopatch 200B or Axopatch ID amplifier (Molecular Devices, USA), using the whole‐cell configuration. Cells were at least initially (except when recording I Na) perfused with an extracellular solution consisting of (in mM) 143 NaCl, 4 KCl, 1.8 CaCl2, 1.2 MgCl2, 5 glucose, and 10 HEPES (pH 7.4 with NaOH; osmolarity adjusted to 301 ± 3 mOsm). A slightly modified version was used for the rat ventricular CMs (in mM: 144 NaCl, 0.4 NaH2PO4, 4.0 KCl, 1.8 CaCl2, 0.53 MgSO4, 5.5 glucose, and 5.0 HEPES). Patch pipettes were pulled with a P‐2000 or P‐97 micropipette puller (Sutter Instruments, USA) from borosilicate glass capillaries and had resistances of between 2 and 4 MΩ when filled with any of the pipette solutions (see below). The data were filtered at 1 or 2 kHz and digitized at 10 kHz with acquisition and analysis performed by use of pClamp software (Versions 8–10; Molecular Devices; RRID:SCR_011323).
I CaL was recorded from hiPSC‐derived CMs (at room temperature, n = 2) and rat ventricular myocytes at 1 μM (n = 3; 5 cells) and at 10 μM (n = 4; 6 cells) in an extracellular solution supplemented with 4‐aminopyridine (3 mM) at 37 °C. The pipette solution used for hiPSC‐derived CMs consisted (in mM) (pH 7.2; osmolarity adjusted to 293 mOsm) 110 KCl, 40 KOH, 20 TEACI, 3 MgATP, 10 EGTA, and 5 HEPES. The composition of the pipette solution used for rat CMs was (in mM) 125 CsCl, 20 TEACI, 5 MgATP, 10 EGTA, and 10 HEPES; the pH was adjusted to 7.2 using CsOH. I CaL was evoked by a 400‐ms depolarization process to 0 mV from a holding potential of −40 mV every 5 s or, in the case of the rat CMs, by 400 ms; depolarizations to potentials ranging from −35 to 55 mV occurred after a prepulse to −40 mV, from the holding potential of −80 mV.
The effect of ORM-11372 on the inward calcium current (ICaL) in isolated rat cardiomyocytes. ICaL current was evoked by 400 ms-long depolarizing voltage pulses to various test potentials, ranging from -35 mV to 55 mV. The holding potential was -80 mV. A short prepulse to -40 mV served to inactivate the Na+ current (the top part of the panel A). Examples of originals currents are shown in the lower part of panel A, before and after 1 µM ORM-11372 exposure in an isolated rat myocyte. Panels B and C illustrate the current-voltage relation (I-V curves) of ICaL in the absence and presence of 1 µM and 10 µM ORM-11372 (panels B and C, […]
are means ± standard errors of the means.
(1 picture or pasted object on this page, not shown here)

T1 sequence (P22002 whole entry, other chains not shown): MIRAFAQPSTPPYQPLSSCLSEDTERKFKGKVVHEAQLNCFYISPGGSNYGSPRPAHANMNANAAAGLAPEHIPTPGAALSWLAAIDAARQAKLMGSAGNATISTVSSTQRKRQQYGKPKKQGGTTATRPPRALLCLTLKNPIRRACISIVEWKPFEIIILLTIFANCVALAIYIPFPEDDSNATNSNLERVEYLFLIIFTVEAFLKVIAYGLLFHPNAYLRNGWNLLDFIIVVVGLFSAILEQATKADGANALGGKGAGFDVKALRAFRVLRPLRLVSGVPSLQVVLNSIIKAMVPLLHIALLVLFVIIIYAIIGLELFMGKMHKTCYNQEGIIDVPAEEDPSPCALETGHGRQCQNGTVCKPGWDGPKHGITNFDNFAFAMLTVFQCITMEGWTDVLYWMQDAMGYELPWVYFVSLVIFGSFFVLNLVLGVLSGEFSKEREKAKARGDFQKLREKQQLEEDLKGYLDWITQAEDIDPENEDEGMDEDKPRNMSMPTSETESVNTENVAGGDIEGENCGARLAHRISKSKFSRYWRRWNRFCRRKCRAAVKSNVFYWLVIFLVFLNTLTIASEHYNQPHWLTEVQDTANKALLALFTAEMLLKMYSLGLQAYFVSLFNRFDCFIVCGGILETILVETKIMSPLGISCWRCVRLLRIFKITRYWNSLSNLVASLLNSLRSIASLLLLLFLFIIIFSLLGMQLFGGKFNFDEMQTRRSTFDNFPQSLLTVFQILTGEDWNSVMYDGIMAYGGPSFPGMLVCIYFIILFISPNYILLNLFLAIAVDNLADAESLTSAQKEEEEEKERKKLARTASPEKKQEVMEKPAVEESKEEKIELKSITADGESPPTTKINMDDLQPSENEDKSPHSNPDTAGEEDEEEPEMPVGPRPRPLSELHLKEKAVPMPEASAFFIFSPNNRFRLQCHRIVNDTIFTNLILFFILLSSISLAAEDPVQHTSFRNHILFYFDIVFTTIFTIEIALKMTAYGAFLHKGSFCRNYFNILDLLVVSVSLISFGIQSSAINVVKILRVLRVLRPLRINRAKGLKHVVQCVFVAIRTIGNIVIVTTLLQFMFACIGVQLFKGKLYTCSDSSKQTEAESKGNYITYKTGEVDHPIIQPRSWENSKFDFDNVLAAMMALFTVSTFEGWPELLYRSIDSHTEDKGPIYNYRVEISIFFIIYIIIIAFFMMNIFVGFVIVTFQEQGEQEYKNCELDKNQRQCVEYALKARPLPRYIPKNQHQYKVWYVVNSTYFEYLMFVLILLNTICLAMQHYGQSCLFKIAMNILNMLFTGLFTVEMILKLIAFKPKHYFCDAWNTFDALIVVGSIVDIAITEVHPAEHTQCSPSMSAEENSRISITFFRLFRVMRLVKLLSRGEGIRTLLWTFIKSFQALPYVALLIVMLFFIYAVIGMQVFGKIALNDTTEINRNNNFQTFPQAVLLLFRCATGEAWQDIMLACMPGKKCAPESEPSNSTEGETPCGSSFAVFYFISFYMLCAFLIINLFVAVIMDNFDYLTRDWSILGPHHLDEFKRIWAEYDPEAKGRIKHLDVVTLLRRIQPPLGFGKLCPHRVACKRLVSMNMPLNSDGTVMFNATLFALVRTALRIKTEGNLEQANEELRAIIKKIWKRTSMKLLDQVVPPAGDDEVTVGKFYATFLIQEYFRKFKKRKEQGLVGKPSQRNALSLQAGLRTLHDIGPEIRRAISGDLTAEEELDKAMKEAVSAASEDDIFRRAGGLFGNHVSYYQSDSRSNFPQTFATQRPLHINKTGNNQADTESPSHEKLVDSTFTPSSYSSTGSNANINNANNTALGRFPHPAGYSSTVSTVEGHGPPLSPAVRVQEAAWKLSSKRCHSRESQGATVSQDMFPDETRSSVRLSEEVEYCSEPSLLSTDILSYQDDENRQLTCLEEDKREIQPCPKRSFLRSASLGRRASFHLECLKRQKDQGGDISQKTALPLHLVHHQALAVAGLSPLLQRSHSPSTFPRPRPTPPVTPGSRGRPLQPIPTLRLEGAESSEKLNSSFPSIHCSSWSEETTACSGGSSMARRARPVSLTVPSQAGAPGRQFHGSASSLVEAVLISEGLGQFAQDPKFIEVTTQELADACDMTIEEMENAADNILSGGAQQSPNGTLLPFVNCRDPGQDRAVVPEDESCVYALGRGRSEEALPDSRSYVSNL
T1 sequence (P54290 25-1091 partner, other chains not shown): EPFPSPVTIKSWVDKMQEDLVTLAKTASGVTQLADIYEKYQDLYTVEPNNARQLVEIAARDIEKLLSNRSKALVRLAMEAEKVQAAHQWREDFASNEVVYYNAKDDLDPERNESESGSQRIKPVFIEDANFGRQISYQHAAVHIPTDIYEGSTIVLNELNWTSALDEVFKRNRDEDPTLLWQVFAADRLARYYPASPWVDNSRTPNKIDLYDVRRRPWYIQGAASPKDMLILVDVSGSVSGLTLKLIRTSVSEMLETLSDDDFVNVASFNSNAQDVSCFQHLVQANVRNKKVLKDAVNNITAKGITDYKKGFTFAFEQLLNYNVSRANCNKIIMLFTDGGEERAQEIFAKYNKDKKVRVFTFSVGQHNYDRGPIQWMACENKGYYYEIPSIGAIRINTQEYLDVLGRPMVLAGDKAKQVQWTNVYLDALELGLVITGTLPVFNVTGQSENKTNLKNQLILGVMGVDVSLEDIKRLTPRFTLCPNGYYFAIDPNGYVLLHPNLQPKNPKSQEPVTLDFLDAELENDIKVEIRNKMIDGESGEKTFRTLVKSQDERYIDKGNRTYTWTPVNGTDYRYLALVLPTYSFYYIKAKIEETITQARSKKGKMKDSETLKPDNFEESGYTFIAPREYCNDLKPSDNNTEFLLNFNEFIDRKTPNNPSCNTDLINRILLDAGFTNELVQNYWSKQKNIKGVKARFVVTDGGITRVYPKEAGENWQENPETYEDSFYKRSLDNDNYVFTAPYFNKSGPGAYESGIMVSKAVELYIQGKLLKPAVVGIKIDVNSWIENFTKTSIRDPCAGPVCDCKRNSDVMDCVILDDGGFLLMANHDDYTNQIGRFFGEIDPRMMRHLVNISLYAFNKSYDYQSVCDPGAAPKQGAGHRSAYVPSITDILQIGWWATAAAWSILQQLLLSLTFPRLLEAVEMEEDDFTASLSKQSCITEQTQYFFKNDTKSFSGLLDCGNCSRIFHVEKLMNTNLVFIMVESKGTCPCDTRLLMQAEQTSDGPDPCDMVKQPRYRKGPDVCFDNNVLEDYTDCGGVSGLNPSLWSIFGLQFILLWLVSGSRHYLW

Compound: Nc1cccc(-c2ccc(CNc3ccc(F)cc3)o2)c1 [ORM‐11372]
- effect on calcium current (ICaL) at various test potentials (1 µM, n=3, 5 cells): did not change
- L-type calcium current amplitude, MEAN (1 µM, test potential 0 mV, 5 cells, control -1375.4): -1268.0 pA
- L-type calcium current amplitude, MEAN (1 µM, test potential 5 mV, 5 cells, control -1319.9): -1233.1 pA
- L-type calcium current amplitude, MEAN (1 µM, test potential 10 mV, 5 cells, control -1195.5): -1106.0 pA
- L-type calcium current amplitude, MEAN (1 µM, test potential 15 mV, 5 cells, control -1031.3): -942.5 pA
- L-type calcium current amplitude, MEAN (1 µM, test potential 20 mV, 5 cells, control -839.7): -771.6 pA
- L-type calcium current amplitude, MEAN (1 µM, test potential 25 mV, 5 cells, control -655.3): -598.7 pA
- L-type calcium current amplitude, MEAN (1 µM, test potential 30 mV, 5 cells, control -482.4): -440.5 pA
- L-type calcium current amplitude, MEAN (1 µM, test potential 35 mV, 5 cells, control -321.0): -290.5 pA
- L-type calcium current amplitude, MEAN (1 µM, test potential 40 mV, 5 cells, control -184.5): -165.5 pA
- L-type calcium current amplitude, MEAN (1 µM, test potential 45 mV, 5 cells, control -86.9): -75.9 pA
- L-type calcium current amplitude, MEAN (1 µM, test potential 50 mV, 4 cells, control -2.1): -6.3 pA
- L-type calcium current amplitude, MEAN (1 µM, test potential 55 mV, 4 cells, control 73.5): 65.1 pA
- L-type calcium current amplitude, MEAN (1 µM, test potential -5 mV, 5 cells, control -1356.0): -1228.2 pA
- L-type calcium current amplitude, MEAN (1 µM, test potential -10 mV, 5 cells, control -1170.3): -1150.4 pA
- L-type calcium current amplitude, MEAN (1 µM, test potential -15 mV, 5 cells, control -958.3): -852.5 pA
- L-type calcium current amplitude, MEAN (1 µM, test potential -20 mV, 5 cells, control -659.5): -595.2 pA
- L-type calcium current amplitude, MEAN (1 µM, test potential -25 mV, 5 cells, control -416.8): -428.2 pA
- L-type calcium current amplitude, MEAN (1 µM, test potential -30 mV, 5 cells, control -247.1): -254.7 pA
- L-type calcium current amplitude, MEAN (1 µM, test potential -35 mV, 5 cells, control -143.0): -137.4 pA
- effect on calcium current (ICaL) at various test potentials (10 µM, n=4, 6 cells): significantly decreased
- effect on calcium current (ICaL) at various test potentials (10 µM, n=4, 6 cells, listed as ORM-11372): moderately decreased
- L-type calcium current amplitude, MEAN (10 µM, test potential 0 mV, 6 cells, control -1895.4): -1170.0 pA
- L-type calcium current amplitude, MEAN (10 µM, test potential 5 mV, 6 cells, control -1875.0): -1197.8 pA
- L-type calcium current amplitude, MEAN (10 µM, test potential 10 mV, 6 cells, control -1771.9): -1118.9 pA
- L-type calcium current amplitude, MEAN (10 µM, test potential 15 mV, 6 cells, control -1587.7): -1003.2 pA
- L-type calcium current amplitude, MEAN (10 µM, test potential 20 mV, 6 cells, control -1357.7): -873.9 pA
- L-type calcium current amplitude, MEAN (10 µM, test potential 25 mV, 6 cells, control -1116.0): -718.1 pA
- L-type calcium current amplitude, MEAN (10 µM, test potential 30 mV, 6 cells, control -896.3): -561.5 pA
- L-type calcium current amplitude, MEAN (10 µM, test potential 35 mV, 6 cells, control -698.8): -429.4 pA
- L-type calcium current amplitude, MEAN (10 µM, test potential 40 mV, 6 cells, control -525.3): -320.9 pA
- L-type calcium current amplitude, MEAN (10 µM, test potential 45 mV, 6 cells, control -374.5): -237.0 pA
- L-type calcium current amplitude, MEAN (10 µM, test potential 50 mV, 6 cells, control -291.0): -189.1 pA
- L-type calcium current amplitude, MEAN (10 µM, test potential 55 mV, 6 cells, control -158.4): -114.5 pA
- L-type calcium current amplitude, MEAN (10 µM, test potential -5 mV, 6 cells, control -1762.2): -1043.1 pA
- L-type calcium current amplitude, MEAN (10 µM, test potential -10 mV, 6 cells, control -1447.7): -807.4 pA
- L-type calcium current amplitude, MEAN (10 µM, test potential -15 mV, 6 cells, control -1127.6): -525.5 pA
- L-type calcium current amplitude, MEAN (10 µM, test potential -20 mV, 6 cells, control -920.0): -316.1 pA
- L-type calcium current amplitude, MEAN (10 µM, test potential -25 mV, 6 cells, control -667.6): -184.1 pA
- L-type calcium current amplitude, MEAN (10 µM, test potential -30 mV, 6 cells, control -368.9): -115.9 pA
- L-type calcium current amplitude, MEAN (10 µM, test potential -35 mV, 6 cells, control -156.2): -64.1 pA
- inhibition at 1 µM (rat CMs, 1 μM, 0 mV, read-out: inhibition of inward I CaL): 7.8%
- inhibition at 10 µM (test potentials 0 to 40 mV): 36 to 39%
- inhibition at 10 µM (test potentials −35 to −20 mV): 59 to 69%
